Measurements published in US20070021380A1, “Novel drug delivery compositions” (priority 2005, published 2007).
In brackets after ≈: the same amount, converted by molar mass.

Test system: HBV
Assay: Anti-viral activity: viral DNA by Q-PCR in tetracycline-responsive HepAD38 cells
Type: cell-based
Conditions: for EC50: HepAD38 cells, viral DNA at day 4 post-induction, Q-PCR; for Improvement Compared to araA: therapeutic effect relative to araA (=1.00)
Method: Tetracycline-responsive cell lines HepAD38 were used (Ladner et al., 1997), hepatoma cells that have been stably transfected with a cDNA copy of the pregenomic RNA of wild-type virus. Withdrawal of tetracycline from the culture medium results in the initiation of viral replication. Cells were cultured at 37° C. in a humidified 5% CO2/air atmosphere in seeding medium, DMEM/Ham's F12 (50/50) supplemented with 10% (v/v) heat-inactivated fetal calf serum, 100 IU/ml penicillin/50 μg/ml streptomycin mix, 400 μg/ml G418, and 0.3 μg/ml tetracycline.
Upon assay initiation, the cells were seeded in 48-well plates at a density of 1.5×10^5/well. After 2-3 days the cultures were induced for viral production by washing with prewarmed PBS and were fed with 200 μl assay medium (seeding medium without tetracycline and G418) with or without the antiviral compounds. Medium was changed after 3 days. The antiviral effect was quantified by measuring levels of viral DNA [isolated (Qiagen) from the cell cultures] at day 4 post-induction, by a real time quantitative PCR (Q-PCR) and analyzed using a SDS 7000 (Applied Biosystems, Foster City, Calif.).
A plasmid containing the full length insert of the HBV genome was used to prepare the standard curve. The amount of viral DNA produced in treated cultures was expressed as a percentage of the mock treated samples. The cytostatic effect of the various compounds was assessed employing the parent hepatoma cell line HepG2. The effect of the compounds on exponentially growing HepG2 cells was evaluated by means of the MTS method (Promega). Briefly, cells were seeded at a density of 3000/well (96 well plate) and were allowed to proliferate for 3 days in the absence or presence of compounds after which time cell density was determined.

In the case of `Nc1ncnc2c1ncn2[C@@H]1O[C@H](CO)[C@@H](O)[C@@H]1O` [araA], the EC50 is reported as 35 µg/mL (≈ 131 µM) and the “Improvement Compared to araA” value is reported as 1.00.
For `Nc1ncnc2c1ncn2[C@@H]1O[C@H](COP(=O)(O)O)[C@@H](O)[C@@H]1O` [araAMP, araA-monophosphate], the EC50 was 33 µg/mL (≈ 95 µM) and the “Improvement Compared to araA” value was 1.35.
